Here are results for seven compounds from patent US9034898B2, “FGF receptor (FGFR) agonist dimeric compounds, process for the preparation thereof and therapeutic use thereof” (Sanofi, priority 2011, dated 2015).

Experiment [1] deals with human venous endothelial cells (HUVECs). Kind of experiment: In vitro angiogenesis model (pseudotubule length of HUVECs on matrigel/collagen). The format is cell-based. Set-up: % activation with respect to FGF2 (in vitro): concentration or dose not given beside the values. Particulars: for activity on the in vitro angiogenesis model: at a concentration of 1 nM, HUVECs, 24 hours; for EC50 / % activation with respect to FGF2 (in vitro): in vitro; for % activation with respect to FGF2 (in vitro): relative to FGF2. As to the method: In Vitro Angiogenesis Model
The products are tested for their ability to cause rearrangement of human venous endothelial cells (HUVECs) on matrigel (Becton dickinson 356230) diluted in collagen (rat tail collagen, type I: Becton dickinson 354236). After 24 hours, the cells are observed under a microscope with a X4 objective and the length of the pseudotubules is measured by means of an image analyser (BIOCOM-logiciel Visiolab 2000).
By way of example, compounds 1, 2, 3, 5 and 9 are active at a concentration of 1 nM on the in vitro angiogenesis model.

The test system of the next experiment is BalbC mice. Nature of the experiment: Sponge angiogenesis model (haemoglobin content of implanted cellulose sponge). It counts as in vivo. Particulars: concentration of 300 μM injected into the sponge, eighth day after implantation. From the text: Sponge Angiogenesis Model
The sponge angiogenesis model is an adaptation of the technique of Andrade et al [Andrade S P, Machado R., Teixeir A S, Belo A V, Tarso A M, Beraldo W T—Sponge-induced angiogenesis in mice and the pharmacological reactivity of the neovasculature quantitated by fluorimetric method, Microvascular Research, 1997, 54: 253-61.]
The mice used are BalbC females from Charles River Laboratory, 7 to 10 weeks old. The animals are anaesthetized by intraperitoneal injection of a xylazine/ketamine mixture ([…] in 0.9% NaCl). The animal's back is shaved and disinfected with hexomedine. A subcutaneous 5 ml pocket of air is made on the animal's back with sterile air. An incision is then made (approximately 1 cm) on the top of the animal's back in order to implant the sponge into the pocket. The biocompatible cellulose sponge (Cellspon, Interchim, 10 mm in diameter) was sterilized beforehand (autoclave 20 min at 120° C.) and is impregnated with 50 μl of sterile solution containing the test product. Suturing is performed by inserting two 9-mm stainless steel autoclip staples (Subra). The wound is again disinfected with hexomedine. […]
To assay the haemoglobin, 50 μl of each sample are deposited in a 96-well plate, in duplicate. […] The OD values are read on a spectrophotometer at 405 nm, using the Biolise software (Tecan, France). […]

What is called EC50 is the midpoint of the concentration-response curve. As for `O=C(O)c1cc(-c2cc(C(=O)NCCCOCCOCCCNC(=O)c3cc(-c4ccc(F)c(C(=O)O)c4)nc4[nH]nc(-c5ccccc5)c34)c3c(-c4ccccc4)n[nH]c3n2)ccc1F` [Compound 1, 3,3′-{ethane-1,2-diylbis[oxypropane-3,1-diylcarbamoyl(3-phenyl-1H-pyrazolo[3,4-b]pyridine-4,6-diyl)]}bis(6-fluorobenzoic acid)], in experiment [1], the “activity on the in vitro angiogenesis model” value is “active”, the concentration for a half-maximal effect (EC50) was under 1 nM and the “% activation with respect to FGF2 (in vitro)” value (shortened to “% activation”) is on record as 84%.
`O=C(O)c1cc(-c2cc(C(=O)NCCCOCCOCCOCCCNC(=O)c3cc(-c4ccc(F)c(C(=O)O)c4)nc4[nH]nc(-c5ccccc5)c34)c3c(-c4ccccc4)n[nH]c3n2)ccc1F` [Compound 2, 5-[4-({15-[6-(3-carboxy-4-fluorophenyl)-3-phenyl-1H-pyrazolo[3,4-b]pyridin-4-yl]-15-oxo-4,7,10-trioxa-14-azapentadec-1-yl}carbamoyl)-3-phenyl-1H-pyrazolo[3,4-b]pyridin-6-yl]-2-fluorobenzoic acid]: in experiment [1] (Homo sapiens, HUVEC), the EC50 is under 1 nM. Besides, in experiment [1], the “activity on the in vitro angiogenesis model” value is listed as “active” and the “% activation” value amounted to 84%. In the experiment on BalbC mice, the “activity on the in vivo angiogenesis model” value is “active”.
The compound `O=C(O)c1cc(-c2cc(C(=O)NCCOCCOCCOCCOCCNC(=O)c3cc(-c4ccc(F)c(C(=O)O)c4)nc4[nH]nc(-c5ccccc5)c34)c3c(-c4ccccc4)n[nH]c3n2)ccc1F` [Compound 3, 5-[4-({16-[6-(3-carboxy-4-fluorophenyl)-3-phenyl-1H-pyrazolo[3,4-b]pyridin-4-yl]-16-oxo-3,6,9,12-tetraoxa-15-azahexadec-1-yl}carbamoyl)-3-phenyl-1H-pyrazolo[3,4-b]pyridin-6-yl]-2-fluorobenzoic acid] displayed an EC50 in experiment [1] (Homo sapiens, HUVEC) of under 1 nM. Besides, in experiment [1], the “activity on the in vitro angiogenesis model” value is “active” and the “% activation” value stood at 75%.
`O=C(O)c1cc(-c2cc(C(=O)NCCCOCCOCCOCCOCCOCCCNC(=O)c3cc(-c4ccc(F)c(C(=O)O)c4)nc4[nH]nc(-c5ccccc5)c34)c3c(-c4ccccc4)n[nH]c3n2)ccc1F` [Compound 5, 5-[4-({21-[6-(3-carboxy-4-fluorophenyl)-3-phenyl-1H-pyrazolo[3,4-b]pyridin-4-yl]-21-oxo-4,7,10,13,16-pentaoxa-20-azahenicos-1-yl}carbamoyl)-3-phenyl-1H-pyrazolo[3,4-b]pyridin-6-yl]-2-fluorobenzoic acid]: the EC50 in experiment [1] (Homo sapiens, HUVEC) was under 1 nM. Besides, in experiment [1], the “activity on the in vitro angiogenesis model” value is “active” and the “% activation” value was 124%.
In the case of `NC(=O)c1cc(-c2ccc(F)c(C(=O)O)c2)nc2[nH]nc(-c3cccc(C(=O)NCCCOCCOCCOCCCNC(=O)c4cccc(-c5n[nH]c6nc(-c7ccc(F)c(C(=O)O)c7)cc(C(N)=O)c56)c4)c3)c12` [Compound 6, 5-(4-carbamoyl-3-{3-[(15-{3-[4-carbamoyl-6-(3-carboxy-4-fluorophenyl)-1H-pyrazolo[3,4-b]pyridin-3-yl]phenyl}-15-oxo-4,7,10-trioxa-14-azapentadec-1-yl)carbamoyl]phenyl}-1H-pyrazolo[3,4-b]pyridin-6-yl)-2-fluorobenzoic acid], in experiment [1] (Homo sapiens, HUVEC), the response was half-maximal at 3 nM (EC50). Moreover, the “% activation” value in experiment [1] stood at 50%.
In turn, `NC(=O)c1cc(-c2ccc(F)c(C(=O)O)c2)nc2[nH]nc(-c3ccc(C(=O)NCCCOCCOCCOCCCNC(=O)c4ccc(-c5n[nH]c6nc(-c7ccc(F)c(C(=O)O)c7)cc(C(N)=O)c56)cc4)cc3)c12` [Compound 8, 5-(4-carbamoyl-3-{4-[(15-{4-[4-carbamoyl-6-(3-carboxy-4-fluorophenyl)-1H-pyrazolo[3,4-b]pyridin-3-yl]phenyl}-15-oxo-4,7,10-trioxa-14-azapentadec-1-yl)carbamoyl]phenyl}-1H-pyrazolo[3,4-b]pyridin-6-yl)-2-fluorobenzoic acid] registered an EC50 in experiment [1] (Homo sapiens, HUVEC) of under 100 nM. In addition, in experiment [1], the “% activation” value is on record as 20%.
Consider `NC(=O)c1cc(-c2ccc(F)c(C(=O)O)c2)nc2[nH]nc(-c3ccc(C(=O)NCCOCCOCCNC(=O)c4ccc(-c5n[nH]c6nc(-c7ccc(F)c(C(=O)O)c7)cc(C(N)=O)c56)cc4)cc3)c12` [Compound 9, 3,3′-{ethane-1,2-diylbis[oxyethane-2,1-diylcarbamoylbenzene-4,1-diyl(4-carbamoyl-1H-pyrazolo[3,4-b]pyridine-3,6-diyl)]}bis(6-fluorobenzoic acid)], for which, in experiment [1], the “activity on the in vitro angiogenesis model” value is given as “active”, the half-maximal effective concentration (EC50) was under 1 nM and the “% activation” value stood at 60%.
